From ChEMBL document CHEMBL1697731, “Cheminformatics analysis of assertions mined from literature that describe drug-induced liver injury in different species” (Chem Res Toxicol, 2010)

Experiments:
[1] = tested on: Hepatotoxicity; assay: Literature-mined compound from Fourches et al multi-species drug-induced liver injury (DILI) dataset, effect in humans; conditions: human
[2] = tested on: Hepatotoxicity; assay: Literature-mined compound from Fourches et al multi-species drug-induced liver injury (DILI) dataset, effect in rodents; conditions: rodentia
[3] = tested on: Hepatotoxicity; assay: Literature-mined compound from Fourches et al multi-species drug-induced liver injury (DILI) dataset, effect in non-rodents

Row | SMILES | Hepatotoxicity [1] | Hepatotoxicity [2] | Hepatotoxicity [3] | Hepatotoxicity ([1]; Liver) | Hepatotoxicity ([2]; Liver) | Hepatotoxicity ([3]; Liver)
1 | C=C(C)[C@@H]1CC[C@]2(C(=O)O)CC[C@]3(C)[C@H](CC[C@@H]4[C@@]5(C)CC[C@H](O)C(C)(C)[C@@H]5CC[C@]43C)[C@@H]12 [BETULINIC ACID] | drug-induced liver injury reported | no drug-induced liver injury reported | no drug-induced liver injury reported | – | – | –
2 | COc1ccc2c(c1OC)C(=O)O[C@@H]2[C@H]1c2c(cc3c(c2OC)OCO3)CCN1C [NOSCAPINE] | no drug-induced liver injury reported | drug-induced liver injury reported | no drug-induced liver injury reported | – | – | –
3 | O=C(CCCN1CCC(O)(c2ccc(Cl)cc2)CC1)c1ccc(F)cc1 [HALOPERIDOL] | drug-induced liver injury reported | drug-induced liver injury reported | drug-induced liver injury reported | – | – | –
4 | OC(CNc1ccccn1)c1ccccc1 (configuration not stated) [PHENYRAMIDOL] | drug-induced liver injury reported | no drug-induced liver injury reported | no drug-induced liver injury reported | – | – | –
5 | Nc1n[n+]([O-])c2ccccc2[n+]1[O-] [TIRAPAZAMINE] | no drug-induced liver injury reported | drug-induced liver injury reported | no drug-induced liver injury reported | – | – | –
6 | ClC(Cl)=C(Cl)Cl [TETRACHLOROETHYLENE] | drug-induced liver injury reported | drug-induced liver injury reported | no drug-induced liver injury reported | – | – | –
7 | Nc1ncn([C@@H]2O[C@H](CO)[C@@H](O)[C@H]2O)c(=O)n1 [AZACITIDINE] | – | – | – | drug-induced liver injury reported | drug-induced liver injury reported | no drug-induced liver injury reported
8 | CSc1ccc2c(c1)N(CCC1CCCCN1C)c1ccccc1S2 (configuration not stated) [THIORIDAZINE] | drug-induced liver injury reported | drug-induced liver injury reported | no drug-induced liver injury reported | – | – | –
9 | C[C@](N)(Cc1ccc(O)c(O)c1)C(=O)O [METHYLDOPA] | drug-induced liver injury reported | no drug-induced liver injury reported | no drug-induced liver injury reported | – | – | –
10 | CN1C(C(=O)Nc2ccccn2)=C(O)c2ccccc2S1(=O)=O [PIROXICAM] | drug-induced liver injury reported | drug-induced liver injury reported | no drug-induced liver injury reported | – | – | –
11 | Cc1nc2n(c(=O)c1CCN1CCC(c3noc4cc(F)ccc34)CC1)CCCC2 [RISPERIDONE] | drug-induced liver injury reported | no drug-induced liver injury reported | no drug-induced liver injury reported | – | – | –
12 | Nc1nc(=O)[nH]cc1F [FLUCYTOSINE] | no drug-induced liver injury reported | drug-induced liver injury reported | no drug-induced liver injury reported | – | – | –
13 | COc1ccc(/C=C/C(=O)Nc2ccccc2C(=O)O)cc1OC | no drug-induced liver injury reported | drug-induced liver injury reported | no drug-induced liver injury reported | – | – | –
14 | C[C@]12Cc3c[nH]nc3C[C@@H]1CC[C@@H]1[C@@H]2CC[C@@]2(C)[C@H]1CC[C@]2(C)O [STANOZOLOL] | drug-induced liver injury reported | drug-induced liver injury reported | no drug-induced liver injury reported | – | – | –
15 | C[C@H]1O[C@@H](O[C@H]2[C@@H](O)C[C@H](O[C@H]3[C@@H](O)C[C@H](O[C@H]4CC[C@@]5(C)[C@H](CC[C@@H]6[C@@H]5C[C@@H](O)[C@]5(C)[C@@H](C7=CC(=O)OC7)CC[C@]65O)C4)O[C@@H]3C)O[C@@H]2C)C[C@H](O)[C@@H]1O [DIGOXIN] | no drug-induced liver injury reported | drug-induced liver injury reported | drug-induced liver injury reported | – | – | –
16 | CCCCC(C)(O)C/C=C/[C@H]1[C@H](O)CC(=O)[C@@H]1CCCCCCC(=O)OC (some centres not stated) [MISOPROSTOL] | no drug-induced liver injury reported | drug-induced liver injury reported | drug-induced liver injury reported | – | – | –
17 | NNC(=O)c1ccncc1 [ISONIAZID] | drug-induced liver injury reported | drug-induced liver injury reported | drug-induced liver injury reported | – | – | –
18 | Cc1cccc(C)c1NC(=O)c1cc(S(N)(=O)=O)c(Cl)cc1O [XIPAMIDE] | no drug-induced liver injury reported | drug-induced liver injury reported | no drug-induced liver injury reported | – | – | –
19 | CCC1(c2ccccc2)C(=O)NC(=O)N(C)C1=O (configuration not stated) [MEPHOBARBITAL] | no drug-induced liver injury reported | drug-induced liver injury reported | no drug-induced liver injury reported | – | – | –
20 | c1ccoc1 [FURAN] | no drug-induced liver injury reported | drug-induced liver injury reported | no drug-induced liver injury reported | – | – | –

Row | SMILES | Hepatotoxicity [1] | Hepatotoxicity [2] | Hepatotoxicity [3] | Hepatotoxicity ([1]; Liver) | Hepatotoxicity ([2]; Liver) | Hepatotoxicity ([3]; Liver)
21 | Cc1cnc(NC(=O)C2=C(O)c3ccccc3S(=O)(=O)N2C)s1 [MELOXICAM] | drug-induced liver injury reported | no drug-induced liver injury reported | no drug-induced liver injury reported | – | – | –
22 | Clc1ccc(COC(Cn2ccnc2)c2ccc(Cl)cc2Cl)c(Cl)c1 (configuration not stated) [MICONAZOLE] | drug-induced liver injury reported | drug-induced liver injury reported | no drug-induced liver injury reported | – | – | –
23 | O=S(=O)(c1cccc2cnccc12)N1CCCNCC1 [FASUDIL] | drug-induced liver injury reported | drug-induced liver injury reported | no drug-induced liver injury reported | – | – | –
24 | Cn1nnc2c(C(N)=O)ncn2c1=O [TEMOZOLOMIDE] | drug-induced liver injury reported | no drug-induced liver injury reported | no drug-induced liver injury reported | – | – | –
25 | CN[C@H]1CC[C@@H](c2ccc(Cl)c(Cl)c2)c2ccccc21 [SERTRALINE] | – | – | – | drug-induced liver injury reported | drug-induced liver injury reported | no drug-induced liver injury reported
26 | Cc1ccnc2c1NC(=O)c1cccnc1N2C1CC1 [NEVIRAPINE] | drug-induced liver injury reported | no drug-induced liver injury reported | no drug-induced liver injury reported | – | – | –
27 | CNC(=C[N+](=O)[O-])NCCSCc1csc(CN(C)C)n1 [NIZATIDINE] | drug-induced liver injury reported | drug-induced liver injury reported | no drug-induced liver injury reported | – | – | –
28 | CCn1cc(C(=O)O)c(=O)c2ccc(C)nc21 [NALIDIXIC ACID] | drug-induced liver injury reported | drug-induced liver injury reported | no drug-induced liver injury reported | – | – | –
29 | CC1(C)S[C@@H]2[C@H](NC(=O)C(C(=O)[O-])c3ccccc3)C(=O)N2[C@H]1C(=O)[O-].[Na+].[Na+] (some centres not stated) [CARBENICILLIN DISODIUM] | drug-induced liver injury reported | no drug-induced liver injury reported | no drug-induced liver injury reported | – | – | –
30 | CC(NC(C)(C)C)C(=O)c1cccc(Cl)c1 (configuration not stated) [BUPROPION] | drug-induced liver injury reported | no drug-induced liver injury reported | no drug-induced liver injury reported | – | – | –
31 | C[C@H]1[C@H](NC(=O)/C(=N\OC(C)(C)C(=O)O)c2csc(N)n2)C(=O)N1S(=O)(=O)O [AZTREONAM] | drug-induced liver injury reported | no drug-induced liver injury reported | no drug-induced liver injury reported | – | – | –
32 | C1CNCCN1 [PIPERAZINE] | – | – | – | no drug-induced liver injury reported | drug-induced liver injury reported | no drug-induced liver injury reported
33 | CN(C)C(=N)N=C(N)N [METFORMIN] | – | – | – | drug-induced liver injury reported | drug-induced liver injury reported | drug-induced liver injury reported
34 | CN1CCc2cccc3c2[C@H]1Cc1ccc(O)c(O)c1-3 [APOMORPHINE] | no drug-induced liver injury reported | drug-induced liver injury reported | no drug-induced liver injury reported | – | – | –
35 | O=C1c2cccc(O)c2C(=O)c2c(O)cccc21 [DANTHRON] | no drug-induced liver injury reported | drug-induced liver injury reported | no drug-induced liver injury reported | – | – | –
36 | O=C(O)c1cccnc1Nc1cccc(C(F)(F)F)c1 [NIFLUMIC ACID] | no drug-induced liver injury reported | drug-induced liver injury reported | no drug-induced liver injury reported | – | – | –
37 | CCCCCOC(=O)Nc1nc(=O)n([C@@H]2O[C@H](C)[C@@H](O)[C@H]2O)cc1F [CAPECITABINE] | drug-induced liver injury reported | drug-induced liver injury reported | no drug-induced liver injury reported | – | – | –
38 | CCN(CC)CCCC(C)Nc1ccnc2cc(Cl)ccc12 (configuration not stated) [CHLOROQUINE] | drug-induced liver injury reported | drug-induced liver injury reported | drug-induced liver injury reported | – | – | –
39 | CCOc1ccc(NC(C)=O)cc1 [PHENACETIN] | drug-induced liver injury reported | drug-induced liver injury reported | no drug-induced liver injury reported | – | – | –
